These results are taken from patent US20160115186A1, “PHOSPHORIC ACID/PHOSPHONIC ACID DERIVATIVES AND MEDICINAL USES THEREOF” (priority 2013, published 2016).

Where two headings read alike, the source gives them in different places. A value given as a limit tells only on which side of the number the result lay.

A short description of data set [1]: in vitro. The following applies: human; Hep G 2.2.15 cells, MTT, day 3 post-dosing. Type of data set: cell-based. The protocol: Hep G 2.2.15 cells were inoculated in a 96-well plate (with cell number being 5.5×10^4) to continually cultivate for 3 days, new culture solutions containing different concentrations of drugs were added, and 3 wells were provided in parallel; at day 3 post-dosing, MTT was added until 7.5 mg/ml, and continued to cultivate for 2 hours, the supernate was discarded, isopropanol containing 10% […] was added, 120 μl/well, and 0.4 μl/well was further added.

The subject of data set [2] is HBV. In words: microbe, parasite or virus in culture. Type of data set: cell-based. The protocol:
At day 10 post-dosing, 100 μl supernate was taken and the content of HBV DNA was measured by the method of Quantitative PCR to calculate IC50 value.

The subject of data set [3] is liver damage in mice caused by D-aminogalactose. Type of data set: in vivo, Kunmin mice. To be noted: serum, D-aminogalactose 750 mg/kg model, 0.2 mmol oral twice, 24 hours after second administration. How it is done: Kunmin mice (20 g) were grouped randomly (8/group). 0.2 mmol of a compound to be tested was orally administered; after 2 hours post-dosing, D-aminogalactose was intraperitoneally injected at a dose of 750 mg/kg to prepare a liver damage model, and the normal saline was subcutaneously injected as a normal control group. After modeling for 12 hours, 0.2 mmol of the compound to be tested was orally administrated again. After 24 hours from the second administration, blood samples were collected to take serum specimen so as to determine ALT, AST.

For data set [4], the system named is liver damage in mice caused by CCl4. Type of data set: in vivo, Kunmin mice. The following applies: serum, CCl4 model, 0.2 mmol oral twice, 24 hours after second administration. The protocol: Kunmin mice (20 g) were grouped randomly (8/group). 0.2 mmol of a compound to be tested was orally administered; after 1 hour post-dosing, a 0.1% peanut oil solution of CCl4 was subcutaneously injected (10 mL/kg), to prepare a liver damage model; the normal saline was injected as a normal control group. After modeling for 12 hours, 0.2 mmol of the compound to be tested was orally administrated again. After 24 hours from the second administration, blood samples were collected to take serum specimen so as to determine ALT, AST.

Setting [5] is: Hepatitis B virus, HepG2.2.15, 240 h.
The mark [6] stands for this setting: Hepatitis B virus, HepG2.2.15, 240 h, Hep G 2.2.15 cells, HBV DNA in supernate at day 10 post-dosing, read-out: IC50.

In data set [1], `CC(C)OC(=O)[C@@H](C)NP(=O)(CO[C@H](C)Cn1cnc2c(N)ncnc21)Oc1cccc2c1OCO2` (stereo partly drawn) [Compound I24] yielded a 50% cytotoxic concentration (CC50) at 3 days of more than 200 µM. The compound also yielded an IC50 in data set [2] (setting [5]) of 4600 nM.

In data set [1], `CC(C)OC(=O)[C@H](NP(=O)(CO[C@H](C)Cn1cnc2c(N)ncnc21)Oc1ccc2c(c1)OCO2)C(C)C` (stereo partly drawn) [Compound I22] gave a CC50 at 3 days of more than 200 µM. Besides, in data set [2] (setting [5]), the IC50 is 170 nM.

As for `Nc1ncnc2c1ncn2CCOCP(=O)(Oc1cccc2c1OCCO2)Oc1cccc2c1OCCO2` [Compound I3, 9-[[[bis-((benzo[1,4]dioxan-5-yl)-oxyl)-phosphonyl]-methoxyl]-ethyl]-adenine], the CC50 at 3 days in data set [1] was more than 200 µM. In data set [2] (setting [5]), this compound gave an IC50 of 6070 nM.

`Nc1ncnc2c1ncn2CCOCP(=O)(Oc1ccc2c(c1)OCCO2)Oc1ccc2c(c1)OCCO2` [Compound I4, 9-[[[bis-((benzo[1,4]dioxan-6-yl)-oxyl)-phosphonyl]-methoxyl]-ethyl]-adenine] yielded a CC50 at 3 days in data set [1] of more than 200 µM. Also, the IC50 in data set [2] (setting [5]) was found to be 3190 nM.

In data set [3], `Nc1ncnc2c1ncn2CCOCP(=O)(Oc1ccccc1)Oc1ccccc1` [i-1, 9-[[bis-(phenoxyl)-phosphonyl-methoxyl]-ethyl]-adenine, reference compound] returned an ALT of 1227 U/L and an AST of 1456 U/L. The IC50 in data set [2] (Hep G 2.2.15 cells, HBV DNA in supernate at day 10 post-dosing, read-out: IC50) amounted to 11300 nM. In data set [4], this compound registered an ALT of 2930 U/L and an AST of 2943 U/L.

Regarding `C=C1[C@H](COP(=O)(Oc2ccc3c(c2)OCO3)Oc2ccc3c(c2)OCO3)[C@@H](O)C[C@@H]1n1cnc2c(=O)[nH]c(N)nc21` [Compound I15, 9-[(1S,3R,4S)-4-hydroxyl-3-(bis-(((benzo[1,3]dioxolan-5-yl)-oxyl)-phosphoryl)-oxymethyl)-2-methylenecyclopentyl]-guanine], the CC50 at 3 days in data set [1] is more than 200 µM. Besides, the IC50 in data set [2] (setting [5]) worked out at 120 nM.

As for `Nc1nc2c(ncn2COCCOP(=O)(Oc2cccc3c2OCO3)Oc2cccc3c2OCO3)c(=O)[nH]1` [Compound I11, 9-[[[bis-((benzo[1,3]dioxolan-4-yl)-oxyl)-phosphoryloxyl]-ethoxyl]-methyl]-guanine], the CC50 at 3 days in data set [1] was more than 200 µM. The same compound returned an IC50 in data set [2] (setting [5]) of 1660 nM.

As to `COc1nc(N)nc2c1ncn2COCCOP(=O)(Oc1ccc2c(c1)OCO2)Oc1ccc2c(c1)OCO2` [Compound I13, 2-amino-6-methoxyl-9-[[[bis-((benzo[1,3]dioxolan-5-yl)-oxyl)-phosphoryloxyl]-ethoxyl]-methyl]-purine], the cytotoxic concentration (CC50) at 3 days in data set [1] is more than 200 µM. In data set [2] (setting [5]), this compound had an IC50 of 290 nM.

As to `C[C@H](Cn1cnc2c(N)ncnc21)OCP(=O)(Oc1ccc2c(c1)OCO2)Oc1ccc2c(c1)OCO2` [Compound I6, 9-[(R)-2-[[bis-((benzo[1,3]dioxolan-5-yl)-oxyl)-phosphonyl]-methoxyl]-propyl]-adenine], in data set [1], the CC50 at 3 days is more than 200 µM. The 50% inhibitory concentration (IC50) in data set [2] (setting [5]) stood at 410 nM.

In turn, `Nc1ccn(C2CSC(COP(=O)(Oc3ccc4c(c3)OCO4)Oc3ccc4c(c3)OCO4)O2)c(=O)n1` (stereo not drawn) [Compound I14, 5′-bis-[((benzo[1,3]dioxolan-5-yl)-oxyl)-phosphoryl]-2′,3′-dideoxy-3′-thia-cytidine] displayed a CC50 at 3 days in data set [1] of more than 200 µM. In data set [2] (setting [5]), this compound had an IC50 of 5280 nM.

Consider `C=C1[C@H](CO[P@](=O)(N[C@@H](C)C(=O)OC(C)C)Oc2cccc3c2OCO3)[C@@H](O)C[C@@H]1n1cnc2c(=O)[nH]c(N)nc21` [Compound I39-a], for which, in data set [2] (setting [6]), the IC50 amounted to 17 nM.

In turn, `COC(=O)[C@@H](C)NP(=O)(CO[C@H](C)Cn1cnc2c(N)ncnc21)Oc1ccc2c(c1)OCO2` (stereo partly drawn) [Compound I19] had a CC50 at 3 days in data set [1] of 146 µM. Further, in data set [2] (setting [5]), the concentration for half-maximal inhibition (IC50) stood at 8 nM.

Consider `C=C1[C@H](CO[P@@](=O)(N[C@@H](C)C(=O)OC(C)C)Oc2cccc3c2OCO3)[C@@H](O)C[C@@H]1n1cnc2c(=O)[nH]c(N)nc21` [Compound I39-b], for which, in data set [2] (setting [6]), the IC50 was 65 nM.

As a reminder, the CC50 is the concentration that lowers cell viability or growth by half. A lower CC50 goes with greater toxicity to the cells. The term IC50 denotes the concentration that inhibits the measured activity by half.
